The subject of this assay is Glioma cells. Briefly: Glioma cell kill (presto blue) after d9-THC pre-treatment and PDT with 14C PDC. Format: cell-based. The following applies: 40 μM d9-THC, no PDT. The procedure: Glioma cells were treated with delta9-tetrahydrocannabinol (“d9-THC”) for 24 hours prior to treatment with 14C PDC and light activated. Five concentrations of d9-THC were used (0, 5, 10, 20, 40 μM). As a significant effect was only observed with a d9-THC concentration of 40 μM, only the results obtained at this concentration are shown (see FIG. 1). After 24 hours, cells were treated with 14C PDC for 4 hours, PDT was performed using green light (20 J/cm^2) and plates were incubated overnight for presto blue on the following day. The PDT dose used was decreased to induce 10-15% cell kill in order to highlight any additive/synergistic effect of the combination that might otherwise be masked if a higher dose had been used.
Absolute cell kill values are shown with error bars representing standard deviations between wells. The hypothetical additive effect represents the hypothetical cell kill percentage had the combined effect merely been additive. Reading from left to right in FIG. 1: the first bar is the control; the second bar is d9-THC only; the third bar is light activated 14C PDC only; the fourth bar is hypothetical cell kill percentage of d9-THC combined with 14C PDC light activated; and the fifth bar is PDT (light activated 14C PDC) combined with the tested cannabinoid. PDT alone (light activated 14C PDC) induced 10% cell kill. 40 μM of d9-THC induced 10% cell kill.

With `CCCCCc1cc(O)c2c(c1)OC(C)(C)[C@@H]1CCC(C)=C[C@@H]21` [d9-THC, delta9-tetrahydrocannabinol], the “cell kill, d9-THC only” value is recorded as 10%.

For the origin of these results see patent US11793818B2, “Method for treating conditions associated with hyperproliferating cells comprising combined administration of a cannabinoid receptor agonist and radiation therapy” (Theralase Technologies, Inc., priority 2018, dated 2023).
